Experimental data taken from EPA's ToxValDB 9.5.

Columns and labels:
[1] = system: Rattus norvegicus
[2] = system: Rattus norvegicus; conditions: oral
[3] = system: Rattus norvegicus; conditions: short-term, duration: 28 days, oral, gavage, Sprague-Dawley
[4] = system: Rattus norvegicus; conditions: oral; remark: listed apart in the source
[5] = system: Rattus norvegicus; conditions: oral; remark: listed apart in the source
[6] = system: Rattus norvegicus; conditions: repeat dose other; oral
[7] = system: Rattus norvegicus; remark: listed apart in the source
[8] = system: Rattus norvegicus; conditions: Hershberger; duration: 10 days; oral; gavage; Sprague-Dawley; anti-androgenic + no effect on PPS, AST or thyroid / decreasing trend significant for LABC
[9] = subchronic, M/F, hypoactivity and ataxia
[10] = M, Clinical Observation: Locomotor activity decrease, Salivation + Functional Observational Battery: Locomotor activity decrease, Salivation + …
[11] = reproduction developmental, M/F, degenerative cardiomyopathy
[12] = subchronic, M/F, increased liver weight and centrilobular hypertrophy
[13] = duration: 2 years, feed, M/F, Crl:CD(SD), reduced weight gain
[14] = reproduction developmental, M/F, reduced mean body weight
[15] = subchronic, duration: 90 days, diet, M/F, reduced hemoglobin concentration, lowered hematocrits, altered organ weight
[16] = chronic, duration: 2 years, diet, M/F, increased kidney body weight ratio

FB(F)F [Boron trifluoride]
NOAEL ([1]; subchronic, duration: 13 weeks, inhalation, intermittent, Kidney: Necrosis): 6 mg/m3

O=C=Nc1ccc(Cc2ccc(N=C=O)cc2)cc1 [4,4'-Diphenylmethane diisocyanate]
NOAEL ([1]; chronic, duration: 24 months, inhalation, intermittent, Nasal cavity: Lesions): 0.2 mg/m3

CCCCO [1-Butanol]
LOAEL [2, 9]: 500 mg/kg-day | NOAEL [2, 9]: 125 mg/kg-day | NOAEL ([1]; subchronic, duration: 13 weeks, oral, gavage, Central nervous system: Ataxia + Central nervous system: Hypoactivity): 125 mg/kg-day

Nc1cccc(O)c1 [3-Aminophenol]
NOAEL ([3]; M/F, Clinical Observation: Tremor Salivation + Body Weight Changes: decrease + Food Consumption: decrease + Water Consumption: increase + …): 240 mg/kg-day | NOAEL ([4]; short-term, duration: 18 days, gavage, M/F, Sprague-Dawley, Whole Body Effects): 80 mg/kg-day

Oc1c(Cl)cc(Cl)c2cccnc12.Oc1c(Cl)ccc2cccnc12.Oc1ccc(Cl)c2cccnc12 [Halquinols]
NOAEL ([5]; chronic, duration: 1 years, Histopathological changes in the kidney): 15 mg/kg-day

ClC(Cl)(Cl)Cl [Carbon tetrachloride]
NOAEL [6]: 16 mg/kg-day | NOAEL [3, 10]: < 20 mg/kg-day | NOEL [3, 10]: < 20 mg/kg-day | NOAEL ([7]; chronic, duration: 104 weeks, inhalation, whole body, M/F, Fischer 344, hepatic): 31.5 mg/m3 | NOAEL ([7]; chronic, duration: 205 days, inhalation, M/F, Wistar, hepatic): 31.5 mg/m3 | LOAEL ([7]; short-term, duration: 10 days, oral, gavage, M, Fischer 344, hepatic): 5 mg/kg-day | NOAEL ([7]; subchronic, duration: 12 weeks, oral, gavage, M, Sprague-Dawley, hepatic): 1 mg/kg-day

O=S(=O)(O)c1ccc(Cl)cc1 [4-Chlorobenzenesulphonic acid]
NOAEL ([4]; subchronic, duration: 32 days, gavage, M/F, S-D): 1800 mg/kg-day

CCCCN(CC)C(=O)SCCC [Pebulate]
NOEL ([1]; subchronic, oral, diet, Blood: Increased clotting time): 5 mg/kg-day

NC1CCCCC1 [Cyclohexylamine]
LOAEL ([2]; chronic, M, testicular damage): 60 mg/kg-day | NOAEL ([2]; chronic, M, testicular damage): 18 mg/kg-day | NOAEL ([1]; subchronic, duration: 90 days, oral, diet, Testis: Decreased weight + Whole body: Decreased weight gain): 30 mg/kg-day

Brc1cc(-c2ccc(Br)c(Br)c2Br)cc(Br)c1Br [Polybrominated biphenyls (PBB)]
LOAEL ([1]; chronic, duration: 25 weeks, oral, gavage, Liver: Increased weight + Liver: Lesions): 0.07 mg/kg-day

CCCN(CCC)C(=O)SCC [EPTC]
LEL [2, 11]: 10 mg/kg-day | NOEL [2, 11]: 2.5 mg/kg-day | NOEL [8]: 125 mg/kg-day | NOEL ([1]; reproduction developmental, oral, diet, Heart: Degenerative cardiomyopathy): 2.5 mg/kg-day

O=S(=O)(c1ccccc1)c1ccccc1 [Diphenylsulfone]
NOAEL ([4]; subchronic, duration: 13 weeks, diet, M): 8 mg/kg-day

Oc1c(Cl)cc(Cl)c(Cl)c1Cl [2,3,4,6-Tetrachlorophenol]
LOAEL [2, 12]: 100 mg/kg-day | NOAEL [2, 12]: 25 mg/kg-day | NOAEL ([1]; subchronic, duration: 90 days, oral, gavage, Liver: Centrilobular hypertrophy + Liver: Increased weight): 25 mg/kg-day

CN[C@@H]1[C@H](O[C@H]2[C@H](O[C@H]3[C@H](O)[C@@H](O)[C@H](N=C(N)N)[C@@H](O)[C@@H]3N=C(N)N)O[C@@H](C)[C@]2(O)C=O)O[C@@H](CO)[C@H](O)[C@H]1O [Streptomycin A]
LOEL [5, 13]: 10 mg/kg-day | NOEL [5, 13]: 5 mg/kg-day

O=C1C2CC=CCC2C(=O)N1SC(Cl)(Cl)Cl (centres undefined) [Captan]
LEL [2, 14]: 25 mg/kg-day | NOEL [2, 14]: 12.5 mg/kg-day | NOEL ([1]; subchronic, oral, diet, Whole body: Decreased weight): 12.5 mg/kg-day

CCCN(CCC)c1c([N+](=O)[O-])cc(C(C)C)cc1[N+](=O)[O-] [Isopropalin]
LEL [2, 15]: 72 mg/kg-day | NOEL [2, 15]: 15 mg/kg-day | NOEL ([1]; subchronic, duration: 90 days, oral, diet, Blood: Hematological effects + Organs, unspecified: Altered weights): 15 mg/kg-day

CC(Cl)(Cl)C(=O)O [Dalapon]
LEL [2, 16]: 28.2 mg/kg-day | NOEL [2, 16]: 8.45 mg/kg-day | NOEL ([1]; chronic, duration: 2 years, oral, diet, Kidney: Increased relative weight): 8.45 mg/kg-day

Clc1cc2oc3cc(Cl)c(Cl)c(Cl)c3c2cc1Cl [1,2,3,7,8-Pentachlorodibenzofuran]
LOAEL [6]: 0.0016 mg/kg-day | NOAEL [6]: 0.00016 mg/kg-day

C=C(C)C(=O)OC [Methyl methacrylate]
NOAEL ([2]; chronic, drinking water, M/F, no effects): 136 mg/kg-day | NOEL ([1]; chronic, duration: 24 months, oral, drinking water, Kidney: Increased relative weight): 7.5 mg/kg-day

COc1cc2c(c3oc(=O)c4c(c13)CCC4=O)[C@]1(O)C=CO[C@@H]1O2 [Aflatoxin M1]
NOEL ([5]; chronic, duration: 2 years, diet, M, Fischer 344, Carcinogenicity): 0.1 mg

CCOP(=S)(OCC)Oc1cc(C)nc(C(C)C)n1 [Diazinon]
NOAEL ([7]; chronic, duration: 98 weeks, oral, diet, M/F, Sprague-Dawley, neurological): 0.065 mg/kg-day | NOAEL ([7]; chronic, duration: 92 days, oral, diet, F, Wistar, neurological): 0.6 mg/kg-day | NOAEL ([7]; short-term, duration: 3 weeks, inhalation, nose only, M/F, albino, neurological): 1.57 mg/m3 | NOAEL ([1]; subchronic, duration: 42 days, oral, diet, Blood: Decreased cholinesterase activity): 0.09 mg/kg-day
